Columns and labels:
Assay in all cases: relative viability (nuclei count vs DMSO), 5 days (fraction); higher = more cells survive
HOP-62 = system: HOP-62
Outline: (§1)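 Lung cancer cell lines in 1536-well plates were dosed by pin tool the day after seeding, either with one drug alone or with a fixed anchor-drug dose plus five library-drug doses (not always all listed) in √10 steps. After 5 days, cells were fixed and their nuclei stained in one step (final 0.05% Triton X-100, 1% formaldehyde, 1 ug/ml Hoechst), then counted on 4× images. Relative viability is the nuclei count in treated wells divided by that in vehicle wells. Values are medians of duplicate plates.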

LU99A = system: LU99A
Outline: as §1

UMC-11 = system: UMC-11
Outline: as §1

NCI-H522 = system: NCI-H522
Outline: as §1

NCI-H1650 = system: NCI-H1650
Outline: as §1

NCI-H3122 = system: NCI-H3122
Outline: as §1

NCI-H1355 = system: NCI-H1355
Outline: as §1

LXF-289 = system: LXF-289
Outline: as §1

SK-LU-1 = system: SK-LU-1
Outline: as §1

NCI-H1993 = system: NCI-H1993
Outline: as §1

NCI-H2170 = system: NCI-H2170
Outline: as §1

EPLC-272H = system: EPLC-272H
Outline: as §1

PC-3 [JPC-3] = system: PC-3 [JPC-3]
Outline: as §1

NCI-H2405 = system: NCI-H2405
Outline: as §1

HCC-827 = system: HCC-827
Outline: as §1

LCLC-97TM1 = system: LCLC-97TM1
Outline: as §1

LK-2 = system: LK-2
Outline: as §1

H3255 = system: H3255
Outline: as §1

ChaGo-K-1 = system: ChaGo-K-1
Outline: as §1

NCI-H2228 = system: NCI-H2228
Outline: as §1

NCI-H441 = system: NCI-H441
Outline: as §1

EKVX = system: EKVX
Outline: as §1

SW 1573 = system: SW 1573
Outline: as §1

Cc1csc(=NC2CCCCC2)n1/N=C/c1ccc(O)c(O)c1O [MIM1] + Cc1nc(Nc2ncc(C(=O)Nc3c(C)cccc3Cl)s2)cc(N2CCN(CCO)CC2)n1 [Dasatinib] (partner 0.075 µM)
relative viability (HOP-62; first compound 0.2 µM): 0.579 | relative viability (HOP-62; first compound 0.6325 µM): 0.696 | relative viability (HOP-62; first compound 2 µM): 0.677 | relative viability (HOP-62; first compound 6.325 µM): 0.629 | relative viability (HOP-62; first compound 20 µM): 0.16 | relative viability (LU99A; first compound 0.2 µM): 0.752 | relative viability (LU99A; first compound 0.6325 µM): 0.54 | relative viability (LU99A; first compound 2 µM): 0.48 | relative viability (LU99A; first compound 6.325 µM): 0.37 | relative viability (LU99A; first compound 20 µM): 0.21 | relative viability (UMC-11; first compound 0.2 µM): 0.474 | relative viability (UMC-11; first compound 2 µM): 0.532 | relative viability (UMC-11; first compound 6.325 µM): 0.402 | relative viability (UMC-11; first compound 20 µM): 0.235 | relative viability (NCI-H522; first compound 0.2 µM): 0.788 | relative viability (NCI-H522; first compound 0.6325 µM): 0.698 | relative viability (NCI-H522; first compound 2 µM): 0.93 | relative viability (NCI-H522; first compound 6.325 µM): 0.743 | relative viability (NCI-H522; first compound 20 µM): 0.585 | relative viability (NCI-H1650; first compound 0.2 µM): 0.304 | relative viability (NCI-H1650; first compound 0.6325 µM): 0.316 | relative viability (NCI-H1650; first compound 2 µM): 0.24 | relative viability (NCI-H1650; first compound 6.325 µM): 0.186 | relative viability (NCI-H1650; first compound 20 µM): 0.159 | relative viability (NCI-H3122; first compound 0.2 µM): 0.779 | relative viability (NCI-H3122; first compound 0.6325 µM): 0.717 | relative viability (NCI-H3122; first compound 2 µM): 0.882 | relative viability (NCI-H3122; first compound 6.325 µM): 0.325 | relative viability (NCI-H3122; first compound 20 µM): 0.122 | relative viability (NCI-H1355; first compound 0.2 µM): 0.746 | relative viability (NCI-H1355; first compound 0.6325 µM): 0.682 | relative viability (NCI-H1355; first compound 2 µM): 0.698 | relative viability (NCI-H1355; first compound 6.325 µM): 0.655 | relative viability (NCI-H1355; first compound 20 µM): 0.391 | relative viability (LXF-289; first compound 0.2 µM): 0.224 | relative viability (LXF-289; first compound 0.6325 µM): 0.174 | relative viability (LXF-289; first compound 2 µM): 0.194 | relative viability (LXF-289; first compound 6.325 µM): 0.275 | relative viability (LXF-289; first compound 20 µM): 0.177 | relative viability (SK-LU-1; first compound 0.2 µM): 0.155 | relative viability (SK-LU-1; first compound 0.6325 µM): 0.19 | relative viability (SK-LU-1; first compound 2 µM): 0.189 | relative viability (SK-LU-1; first compound 6.325 µM): 0.166 | relative viability (SK-LU-1; first compound 20 µM): 0.235 | relative viability (NCI-H1993; first compound 0.2 µM): 0.349 | relative viability (NCI-H1993; first compound 0.6325 µM): 0.57 | relative viability (NCI-H1993; first compound 2 µM): 0.545 | relative viability (NCI-H1993; first compound 6.325 µM): 0.484 | relative viability (NCI-H1993; first compound 20 µM): 0.411 | relative viability (NCI-H2170; first compound 0.2 µM): 0.569 | relative viability (NCI-H2170; first compound 0.6325 µM): 0.498 | relative viability (NCI-H2170; first compound 2 µM): 0.73 | relative viability (NCI-H2170; first compound 6.325 µM): 0.382 | relative viability (NCI-H2170; first compound 20 µM): 0.172 | relative viability (EPLC-272H; first compound 0.2 µM): 0.406 | relative viability (EPLC-272H; first compound 0.6325 µM): 0.305 | relative viability (EPLC-272H; first compound 2 µM): 0.328 | relative viability (EPLC-272H; first compound 6.325 µM): 0.312 | relative viability (EPLC-272H; first compound 20 µM): 0.0989 | relative viability (PC-3 [JPC-3]; first compound 0.2 µM): 1.03 | relative viability (PC-3 [JPC-3]; first compound 0.6325 µM): 0.976 | relative viability (PC-3 [JPC-3]; first compound 2 µM): 0.981 | relative viability (PC-3 [JPC-3]; first compound 6.325 µM): 0.904 | relative viability (PC-3 [JPC-3]; first compound 20 µM): 0.582 | relative viability (NCI-H2405; first compound 0.2 µM): 0.21 | relative viability (NCI-H2405; first compound 0.6325 µM): 0.225 | relative viability (NCI-H2405; first compound 2 µM): 0.209 | relative viability (NCI-H2405; first compound 6.325 µM): 0.205 | relative viability (NCI-H2405; first compound 20 µM): 0.48 | relative viability (HCC-827; first compound 0.2 µM): 0.376 | relative viability (HCC-827; first compound 0.6325 µM): 0.308 | relative viability (HCC-827; first compound 2 µM): 0.259 | relative viability (HCC-827; first compound 6.325 µM): 0.348 | relative viability (HCC-827; first compound 20 µM): 0.488 | relative viability (LCLC-97TM1; first compound 0.2 µM): 0.866 | relative viability (LCLC-97TM1; first compound 0.6325 µM): 0.709 | relative viability (LCLC-97TM1; first compound 2 µM): 1.02 | relative viability (LCLC-97TM1; first compound 6.325 µM): 0.552 | relative viability (LCLC-97TM1; first compound 20 µM): 0.431 | relative viability (LK-2; first compound 0.2 µM): 0.358 | relative viability (LK-2; first compound 2 µM): 0.202 | relative viability (LK-2; first compound 6.325 µM): 0.269 | relative viability (LK-2; first compound 20 µM): 0.176 | relative viability (H3255; first compound 0.2 µM): 0.339 | relative viability (H3255; first compound 0.6325 µM): 0.343 | relative viability (H3255; first compound 2 µM): 0.334 | relative viability (H3255; first compound 6.325 µM): 0.344 | relative viability (H3255; first compound 20 µM): 0.255 | relative viability (ChaGo-K-1; first compound 0.2 µM): 0.594 | relative viability (ChaGo-K-1; first compound 0.6325 µM): 0.552 | relative viability (ChaGo-K-1; first compound 2 µM): 0.562 | relative viability (ChaGo-K-1; first compound 6.325 µM): 0.466 | relative viability (ChaGo-K-1; first compound 20 µM): 0.173 | relative viability (NCI-H2228; first compound 0.2 µM): 0.505 | relative viability (NCI-H2228; first compound 0.6325 µM): 0.524 | relative viability (NCI-H2228; first compound 2 µM): 0.66 | relative viability (NCI-H2228; first compound 6.325 µM): 0.205 | relative viability (NCI-H2228; first compound 20 µM): 0.0988 | relative viability (NCI-H441; first compound 0.2 µM): 0.522 | relative viability (NCI-H441; first compound 2 µM): 0.631 | relative viability (NCI-H441; first compound 6.325 µM): 0.481 | relative viability (NCI-H441; first compound 20 µM): 0.262 | relative viability (EKVX; first compound 0.2 µM): 0.591 | relative viability (EKVX; first compound 2 µM): 0.558 | relative viability (EKVX; first compound 6.325 µM): 0.514 | relative viability (EKVX; first compound 20 µM): 0.391 | relative viability (SW 1573; first compound 0.2 µM): 0.557 | relative viability (SW 1573; first compound 0.6325 µM): 0.558 | relative viability (SW 1573; first compound 2 µM): 0.413 | relative viability (SW 1573; first compound 6.325 µM): 0.244 | relative viability (SW 1573; first compound 20 µM): 0.0901
